Read-outs that look alike come from different tables or passages of the source.
Key:
Assay type in all cases: cell-based
human TLR7 = target: T1, human TLR7 (Homo sapiens, UniProt Q9NYK1); assay: TLR7 inhibition reporter assay (HEK-Blue cells, secreted embryonic alkaline phosphatase reporter); settings: HEK-Blue cells overexpressing human TLR7, stimulated with gardiquimod 7.5 μM; read-out: TLR 7 IC50
T1 construct: host or cells: HEK-Blue cells (HEK293-derived reporter line)
T1 sequence (Q9NYK1 27-1049): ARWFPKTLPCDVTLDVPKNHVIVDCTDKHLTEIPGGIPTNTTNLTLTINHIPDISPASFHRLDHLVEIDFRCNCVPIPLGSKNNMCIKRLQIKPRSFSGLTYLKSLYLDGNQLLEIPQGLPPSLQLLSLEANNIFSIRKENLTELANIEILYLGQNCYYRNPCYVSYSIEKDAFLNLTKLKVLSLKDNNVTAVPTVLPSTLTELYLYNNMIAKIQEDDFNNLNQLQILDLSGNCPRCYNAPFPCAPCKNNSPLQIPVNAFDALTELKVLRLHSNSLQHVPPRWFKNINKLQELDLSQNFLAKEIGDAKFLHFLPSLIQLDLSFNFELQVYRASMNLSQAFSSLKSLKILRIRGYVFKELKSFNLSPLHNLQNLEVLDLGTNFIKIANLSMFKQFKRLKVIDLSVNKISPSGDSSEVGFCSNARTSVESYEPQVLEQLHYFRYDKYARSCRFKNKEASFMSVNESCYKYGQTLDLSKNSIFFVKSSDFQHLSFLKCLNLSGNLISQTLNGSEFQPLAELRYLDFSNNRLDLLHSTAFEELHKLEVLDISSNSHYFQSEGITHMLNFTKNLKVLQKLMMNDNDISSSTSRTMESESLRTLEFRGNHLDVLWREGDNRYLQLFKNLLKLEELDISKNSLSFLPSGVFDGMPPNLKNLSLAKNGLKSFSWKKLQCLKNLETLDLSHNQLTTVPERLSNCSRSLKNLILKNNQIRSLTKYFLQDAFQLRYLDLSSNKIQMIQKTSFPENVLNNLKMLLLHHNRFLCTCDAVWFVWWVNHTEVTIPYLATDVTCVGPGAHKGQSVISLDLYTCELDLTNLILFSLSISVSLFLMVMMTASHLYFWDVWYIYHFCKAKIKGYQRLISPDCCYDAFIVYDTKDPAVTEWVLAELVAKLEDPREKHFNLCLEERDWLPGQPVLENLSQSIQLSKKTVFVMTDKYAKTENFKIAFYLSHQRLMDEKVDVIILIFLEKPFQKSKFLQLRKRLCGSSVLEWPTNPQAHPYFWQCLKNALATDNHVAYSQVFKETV
Summary of the method: (§1)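 HEK-Blue cells overexpressing the respective receptor, with an NF-κB/AP-1-driven SEAP reporter, were pre-treated with compound (0.05 nM–50 μM) for 30 min at room temperature. Stimulation used gardiquimod 7.5 μM (TLR7), R848 15.9 μM (TLR8) or ODN2006 5 nM (TLR9); SEAP was read after 22 h at 37 °C as percent inhibition.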

human TLR8 = target: T2, human TLR8 (Homo sapiens, UniProt Q9NR97); assay: TLR8 inhibition reporter assay (HEK-Blue cells, secreted embryonic alkaline phosphatase reporter); settings: HEK-Blue cells overexpressing human TLR8, stimulated with R848 15.9 μM; read-out: TLR 8 IC50
T2 construct: host or cells: HEK-Blue cells (HEK293-derived reporter line)
T2 sequence (Q9NR97 27-1041): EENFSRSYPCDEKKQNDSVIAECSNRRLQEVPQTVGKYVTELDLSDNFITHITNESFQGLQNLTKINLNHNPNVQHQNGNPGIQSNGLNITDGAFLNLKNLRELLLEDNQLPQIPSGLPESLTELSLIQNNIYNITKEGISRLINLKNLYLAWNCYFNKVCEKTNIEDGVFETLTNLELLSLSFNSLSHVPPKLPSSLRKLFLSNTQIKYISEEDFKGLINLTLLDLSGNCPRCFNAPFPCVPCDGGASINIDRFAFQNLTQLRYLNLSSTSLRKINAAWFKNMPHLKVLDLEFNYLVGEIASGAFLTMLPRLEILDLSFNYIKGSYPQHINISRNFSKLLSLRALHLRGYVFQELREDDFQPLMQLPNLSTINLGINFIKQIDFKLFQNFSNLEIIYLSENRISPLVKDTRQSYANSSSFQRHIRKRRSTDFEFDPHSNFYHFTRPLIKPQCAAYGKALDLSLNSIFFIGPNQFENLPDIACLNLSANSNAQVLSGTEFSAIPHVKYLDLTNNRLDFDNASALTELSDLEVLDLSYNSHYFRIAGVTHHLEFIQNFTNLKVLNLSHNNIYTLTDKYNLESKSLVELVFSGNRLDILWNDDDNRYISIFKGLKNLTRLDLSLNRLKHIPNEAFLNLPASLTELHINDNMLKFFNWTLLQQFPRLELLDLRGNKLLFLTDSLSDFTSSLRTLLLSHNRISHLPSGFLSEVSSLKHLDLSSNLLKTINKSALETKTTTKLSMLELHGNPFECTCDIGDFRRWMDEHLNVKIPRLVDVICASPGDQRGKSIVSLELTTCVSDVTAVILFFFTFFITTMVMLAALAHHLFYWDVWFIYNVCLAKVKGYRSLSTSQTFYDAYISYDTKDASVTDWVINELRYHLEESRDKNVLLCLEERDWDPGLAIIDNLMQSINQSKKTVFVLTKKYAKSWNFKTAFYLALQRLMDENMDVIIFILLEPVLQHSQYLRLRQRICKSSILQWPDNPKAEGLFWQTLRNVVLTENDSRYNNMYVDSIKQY
Summary of the method: as §1

human TLR9 = target: T3, human TLR9 (Homo sapiens, UniProt Q9NR96); assay: TLR9 inhibition reporter assay (HEK-Blue cells, secreted embryonic alkaline phosphatase reporter)
T3 construct: host or cells: HEK-Blue cells (HEK293-derived reporter line)
T3 sequence (Q9NR96 26-1032): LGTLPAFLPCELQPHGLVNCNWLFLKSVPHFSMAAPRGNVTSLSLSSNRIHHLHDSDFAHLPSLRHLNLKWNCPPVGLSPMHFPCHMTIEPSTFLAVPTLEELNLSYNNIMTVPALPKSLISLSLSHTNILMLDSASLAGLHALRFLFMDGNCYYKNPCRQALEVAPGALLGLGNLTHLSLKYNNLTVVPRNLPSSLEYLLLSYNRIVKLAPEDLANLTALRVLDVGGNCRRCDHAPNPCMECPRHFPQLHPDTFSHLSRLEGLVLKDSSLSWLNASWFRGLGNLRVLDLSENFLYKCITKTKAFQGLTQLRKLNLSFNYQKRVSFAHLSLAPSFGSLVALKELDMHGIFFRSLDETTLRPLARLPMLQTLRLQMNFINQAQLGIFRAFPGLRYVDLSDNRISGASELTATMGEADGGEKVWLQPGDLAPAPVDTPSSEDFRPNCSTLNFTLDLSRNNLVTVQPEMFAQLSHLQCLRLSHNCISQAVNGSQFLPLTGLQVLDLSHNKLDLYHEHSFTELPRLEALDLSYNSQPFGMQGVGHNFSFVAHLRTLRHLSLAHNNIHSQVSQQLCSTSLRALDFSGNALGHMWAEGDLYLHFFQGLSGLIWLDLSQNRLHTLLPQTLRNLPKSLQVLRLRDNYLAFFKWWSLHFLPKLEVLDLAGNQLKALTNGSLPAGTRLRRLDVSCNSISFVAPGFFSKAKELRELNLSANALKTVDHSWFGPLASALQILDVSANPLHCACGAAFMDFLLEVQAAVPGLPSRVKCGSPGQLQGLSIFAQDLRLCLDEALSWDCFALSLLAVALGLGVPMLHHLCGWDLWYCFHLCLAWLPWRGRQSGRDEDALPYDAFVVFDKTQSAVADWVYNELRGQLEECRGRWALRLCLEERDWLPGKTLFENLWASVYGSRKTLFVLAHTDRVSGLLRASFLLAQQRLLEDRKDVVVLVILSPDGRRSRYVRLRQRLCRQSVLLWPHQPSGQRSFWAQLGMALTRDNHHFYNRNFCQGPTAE
Summary of the method: as §1

[1] = HEK-Blue cells overexpressing human TLR9, stimulated with ODN2006 5 nM, read-out: TLR 9 IC50
[2] = HEK-Blue human TLR9 reporter cells

SMILES	IC50 (human TLR7) [nM]	IC50 (human TLR8) [nM]	IC50 (human TLR9; [1]) [nM]	IC50 (human TLR9; [2]) [nM]
Cn1c(-c2ccc(S(C)(=O)=O)cc2)nc2c(F)cc(C3CCN(C4CCCN(C5CCOCC5)CC4)CC3)cc21 (stereo not drawn) [Example 301, 4-fluoro-1-methyl-2-(4-(methylsulfonyl)phenyl)-6-(1-(1-(tetrahydro-2H-pyran-4-yl)azepan-4-yl)piperidin-4-yl)-1H-benzo[d]imidazole]	3100	> 50000	48	48
Cc1cc(C2CCN(C3CCCN(C4COC4)CC3)CC2)cc2c1nc(-c1ccc(S(C)(=O)=O)cc1)n2C (stereo not drawn) [Example 304, 1,4-dimethyl-2-(4-(methylsulfonyl)phenyl)-6-(1-(1-(oxetan-3-yl)azepan-4-yl)piperidin-4-yl)-1H-benzo[d]imidazole]	12300	> 50000	180	180
Cc1cc(C2CCN(C3CCCN(C4COC4)CC3)CC2)cc2c1nc(-c1ccc(S(C)(=O)=O)cc1)n2C (stereo not drawn) [Example 305, 1,4-dimethyl-2-(4-(methylsulfonyl)phenyl)-6-(1-(1-(oxetan-3-yl)azepan-4-yl)piperidin-4-yl)-1H-benzo[d]imidazole]	8600	> 50000	90	90
CC(C)CN1CCCC(N2CCC(c3ccc4nc(-c5ccc(S(C)(=O)=O)cc5)n(C)c4c3F)CC2)CC1 (stereo not drawn) [Example 310, 7-fluoro-6-(1-(1-isobutylazepan-4-yl)piperidin-4-yl)-1-methyl-2-(4-(methylsulfonyl)phenyl)-1H-benzo[d]imidazole]	> 50000	> 50000	46	47
CC(C)CN1CCCC(N2CCC(c3ccc4nc(-c5ccc(S(C)(=O)=O)cc5)n(C)c4c3F)CC2)CC1 (stereo not drawn) [Example 311, 7-fluoro-6-(1-(1-isobutylazepan-4-yl)piperidin-4-yl)-1-methyl-2-(4-(methylsulfonyl)phenyl)-1H-benzo[d]imidazole]	> 50000	> 50000	72	72
Cn1c(-c2ccc(S(C)(=O)=O)cc2)nc2ccc(C3CCN(C4CCCN(C5CCC5)CC4)CC3)c(F)c21 (stereo not drawn) [Example 312, 6-(1-(1-cyclobutylazepan-4-yl)piperidin-4-yl)-7-fluoro-1-methyl-2-(4-(methylsulfonyl)phenyl)-1H-benzo[d]imidazole]	> 50000	> 50000	64	64
Cn1c(-c2ccc(S(C)(=O)=O)cc2)nc2ccc(C3CCN(C4CCCN(C5CCC5)CC4)CC3)c(F)c21 (stereo not drawn) [Example 313, 6-(1-(1-cyclobutylazepan-4-yl)piperidin-4-yl)-7-fluoro-1-methyl-2-(4-(methylsulfonyl)phenyl)-1H-benzo[d]imidazole]	> 50000	> 50000	69	69
Cn1c(-c2ccc(S(C)(=O)=O)cc2)nc2ccc(C3CCN(C4CCCN(C5COC5)CC4)CC3)c(F)c21 (stereo not drawn) [Example 314, 7-fluoro-1-methyl-2-(4-(methylsulfonyl)phenyl)-6-(1-(1-(oxetan-3-yl)azepan-4-yl)piperidin-4-yl)-1H-benzo[d]imidazole]	6100	> 50000	192	190
Cn1c(-c2ccc(S(C)(=O)=O)cc2)nc2ccc(C3CCN(C4CCCN(C5COC5)CC4)CC3)c(F)c21 (stereo not drawn) [Example 315, 7-fluoro-1-methyl-2-(4-(methylsulfonyl)phenyl)-6-(1-(1-(oxetan-3-yl)azepan-4-yl)piperidin-4-yl)-1H-benzo[d]imidazole]	6200	> 50000	147	150
Cn1c(-c2ccc(S(C)(=O)=O)cc2)nc2ccc(C3CCN(C4CCCN(C5CCOCC5)CC4)CC3)c(F)c21 (stereo not drawn) [Example 316, 7-fluoro-1-methyl-2-(4-(methylsulfonyl)phenyl)-6-(1-(1-(tetrahydro-2H-pyran-4-yl)azepan-4-yl)piperidin-4-yl)-1H-benzo[d]imidazole]	> 50000	16700	14	14
Cc1cc(C2CCN(C3CCN(c4ccccc4)CC3)CC2)cc2c1nc(-c1ccc(S(C)(=O)=O)cc1)n2C [Example 318, 1,4-dimethyl-2-(4-(methylsulfonyl)phenyl)-6-(1′-phenyl-[1,4′-bipiperidin]-4-yl)-1H-benzo[d]imidazole]	10200	> 50000	269	270
CC(C)CN1CCC(N2CCC(c3cc(F)c4nc(-c5ccc(S(C)(=O)=O)cc5)n(C5CC5)c4c3)CC2)CC1 [Example 319, 1-cyclopropyl-4-fluoro-6-(1′-isobutyl-[1,4′-bipiperidin]-4-yl)-2-(4-(methylsulfonyl)phenyl)-1H-benzo[d]imidazole]	1400	> 50000	94	94
